# Where two headings read alike, the source gives them in different places.
# Columns and labels:
# Mcl-1 protein = Mcl-1 protein (Homo sapiens, UniProt Q07820); assay: Inhibition of Mcl-1 by the fluorescence polarisation technique; format: binding
# Protocol: The relative binding potency of each compound was determined via Fluorescence Polarisation (FP). The method utilised a Fluorescein labelled ligand (Fluorescein-βAla-Ahx-A-REIGAQLRRMADDLNAQY-OH; mw 2,765) which binds to the Mcl-1 protein (such that Mcl-1 corresponds to the UniProtKB® primary accession number: Q07820) leading to an increased anisotropy measured in milli-polarisation (mP) units using a reader. The addition of a compound which binds competitively to the same site as the ligand will result in a greater proportion of unbound ligand in the system indicated by a decrease in mP units.
# An 11 point serial dilution of each compound was prepared in DMSO and 2 μl transferred into flat bottomed, low binding, 384-well plate (final DMSO concentration 5%). 38 μl of buffer (10 mM 4-(2-hydroxyethyl)-1-piperazineethanesulfonic acid [HEPES], 150 mM NaCl, 0.05% Tween 20, pH 7.4), containing the Fluorescein labelled ligand (final concentration 1 nM) and Mcl-1 protein (final concentration 5 nM) was then added.
# Assay plates were incubated ˜2 hours at r.t. before FP was measured on a Biomek Synergy2 reader (Ex. 528 nm, Em. 640 nm, Cut off 510 nm) and mP units calculated. The binding of increasing doses of test compound was expressed as a percentage reduction in mP compared to a window established between ‘5% DMSO only’ and ‘100% inhibition’ controls. 11-point dose response curves were plotted with XL-Fit software using a 4-Parameter Logistic Model (Sigmoidal Dose-Response Model) and the inhibitory concentrations that gave a 50% reduction in mP (IC50) were determined.
# H929 cells = assay: In vitro cytotoxicity (MTT) on H929 multiple myeloma tumour line; format: cell-based; conditions: Microculture Tetrazolium Assay
# Protocol: The cytotoxicity studies were carried out on the H929 multiple myeloma tumour line.
# The cells are distributed onto microplates and exposed to the test compounds for 48 hours.
# The cell viability is then quantified by a colorimetric assay, the Microculture Tetrazolium Assay (Cancer Res., 1987, 47, 939-942).
# [1] = fluorescence polarisation test, Fluorescein labelled ligand 1 nM, Mcl-1 protein 5 nM, ~2 hours at r.t., read-out: IC50 (M) Mcl-1 FP
# [2] = Homo sapiens, NCI-H929, exposed 48 hours
# Mcl-1 protein, sequence (Q07820 whole entry): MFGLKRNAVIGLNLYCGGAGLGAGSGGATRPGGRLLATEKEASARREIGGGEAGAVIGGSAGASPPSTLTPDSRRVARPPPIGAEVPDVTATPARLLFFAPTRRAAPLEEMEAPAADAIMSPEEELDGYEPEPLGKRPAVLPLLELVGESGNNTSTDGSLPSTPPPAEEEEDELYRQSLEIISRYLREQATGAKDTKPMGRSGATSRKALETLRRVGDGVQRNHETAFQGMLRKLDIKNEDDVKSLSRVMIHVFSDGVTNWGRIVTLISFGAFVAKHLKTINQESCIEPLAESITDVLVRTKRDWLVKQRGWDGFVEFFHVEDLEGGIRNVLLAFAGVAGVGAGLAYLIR
IC50 (Mcl-1 protein; [1]),Compound,IC50 (H929 cells; [2]),IC50 (Mcl-1 protein),IC50 (H929 cells; exposed 48 hours)
6.15e-09 M,"COCC(COC)Oc1ccc(-c2nccc(COc3ccccc3CC(Oc3ncnc4sc(-c5ccc(F)cc5)c(-c5ccc(OCCN6CCN(C)CC6)c(Cl)c5C)c34)C(=O)O)n2)cc1 [Example 14, (2R)-2-{[(5Sa)-5-{3-chloro-2-methyl-4-[2-(4-methylpiperazin-1-yl)ethoxy]phenyl}-6-(4-fluorophenyl)thieno[2,3-d]pyrimidin-4-yl]oxy}-3-{(2-[(2-{4-[(1,3-dimethoxypropan-2-yl)oxy]phenyl}pyrimidin-4-yl)methoxy]phenyl}propanoic acid]",3.37 nM,–,–
3.15e-09 M,"Cc1c(-c2c(-c3ccc(F)cc3)sc3ncnc(OC(Cc4ccccc4OCc4ccnc(-c5ccc(CCO)cc5)n4)C(=O)O)c23)ccc(OCCN2CCN(C)CC2)c1Cl [Example 24, (2R)-2-{[(5Sa)-5-{3-chloro-methyl-4-[2-(4methylpiperazin-1-yl)ethoxy]phenyl}-6-(4-fluorophenyl)thieno[2,3-d]pyrimidin-4-yl]oxy}-3-[2-({2-[4-(2-hydroxyethyl)phenyl]pyrimidin-4-yl}methoxy)phenyl]propanoic acid]",2.55 nM,–,–
1.53e-08 M,"Cc1c(-c2c(-c3ccc(F)cc3)sc3ncnc(OC(Cc4ccccc4OCc4ccnc(-c5ccc(OCCOCCO)cc5)n4)C(=O)O)c23)ccc(OCCN2CCN(C)CC2)c1Cl [Example 32, (2R)-2-{[(5Sa)-5-{3-chloro-2-methyl-4-[2-(4-methylpiperazin-1-yl)ethoxy]phenyl}-6-(4-fluorophenl)thieno[2,3d]-pyrimidin-4-yl]oxy}-3-{2-[(2-{4-[2-(2-hydroxyethoxy)ethoxy]phenyl}pyrimidin-4-yl)methoxy]phenyl}propanoic acid]",1.68 nM,–,–
3.85e-09 M,"COCCOCCOc1ccc(-c2nccc(COc3ccccc3CC(Oc3ncnc4sc(-c5ccc(F)cc5)c(-c5ccc(OCCN6CCN(C)CC6)c(Cl)c5C)c34)C(=O)O)n2)cc1 [Example 31, (2R)-2-{[(5Sa)-5-{3-chloro-2-methyl-4-[2-(4-methylpiperazin-1-yl)ethoxy]phenyl}-6-(4-fluorophenyl)thieno[2,3-d]pyrimidin-4-yl]oxy}-3-{2-[(2-{4-[2-(2-methoxyethoxy)ethoxy]phenyl}pyrimidin-4-yl)methoxy]phenyl}propanoic acid]",1.68 nM,–,–
2.75e-09 M,"Cc1c(-c2c(-c3ccc(F)cc3)sc3ncnc(OC(Cc4ccccc4OCc4ccnc(-c5ccc(OCC(O)CO)cc5)n4)C(=O)O)c23)ccc(OCCN2CCN(C)CC2)c1Cl [Example 15, (2R)-2-{[(5Sa)-5-{3-chloro-2-methyl-4-[2-(4-methylpiperazin-1-yl)ethoxy]phenyl}-6-(4-fluorophehenyl)thieno[2,3-d]pyrimidin-4-yl]oxy}-3-[2-({2-[4-(2,3-dihydroxypropoxy)phenyl]pyrimidin-4-yl}methoxy)phenyl]propanoic acid]",3.59 nM,–,–
4.5e-09 M,"Cc1c(-c2c(-c3ccc(F)cc3)sc3ncnc(OC(Cc4ccccc4OCc4ccnc(-c5cccc(OCCO)c5)n4)C(=O)O)c23)ccc(OCCN2CCN(C)CC2)c1Cl [Example 30, (2R)-2-{[(5Sa)-5-{3-chloro-2-methyl-4-[2-(4-methylpiperazin-1-yl)ethoxy]phenyl}-6-(4-fluorophenyl)thieno[2,3-d]pyrimidin-4-yl]oxy}-3-[2-({2-[3-(2-hydroxyethoxy)phenyl]pyrimidin-4-yl-}methoxy)phenyl]propanoic acid]",3.6 nM,–,–

# Second part, the compound before the results:
Compound,IC50 (Mcl-1 protein; [1]),IC50 (H929 cells; [2]),IC50 (Mcl-1 protein),IC50 (H929 cells; exposed 48 hours)
"Cc1c(-c2c(-c3ccc(F)cc3)sc3ncnc(OC(Cc4ccccc4OCc4ccnc(-c5ccc(COC6(C)OC7OC(CO)C(O)C(O)C7O6)cc5)n4)C(=O)O)c23)ccc(OCCN2CCN(C)CC2)c1Cl [Example 22, 1,2-O-[(1R)-1-({4-[4-({2-[(2R)-2-carboxy-2-{[(5Sa)-5-{3-chloro-2-methyl-4-[2-(4-methylpiperazin-1-yl)ethoxy]phenyl}-6-(4-fluorophenyl)thieno[2,3-d]pyrimidin-4-yl]oxy}ethyl]phenoxy}methyl)pyrimidin-2-yl]benzyl}oxy)ethylidene]-β-D-mannopyranose]",5.5e-09 M,5.97 nM,–,–
"Cc1c(-c2c(-c3ccc(F)cc3)sc3ncnc(OC(Cc4ccccc4OCc4ccnc(-c5cccc(OCC6COC(C)(C)O6)c5)n4)C(=O)O)c23)ccc(OCCN2CCN(C)CC2)c1Cl [Example 35, (2R) -2-{[(5Sa)-5-{3-chloro-2-methyl-4-[2-(4-methylpiperazin-1-yl)ethoxy]phenyl}-6-(4-fluorophenyl)thieno[2,3-d]pyrimidin-4-yl]oxy}-3-{2-[(2-{3-[(2,2-dimethyl-1,3-dioxolan-4-yl)methoxy]phenyl}pyrimidin-4-yl)methoxy]phenyl}propanoic acid]",5.15e-09 M,4.76 nM,–,–
"Cc1c(-c2c(-c3ccc(F)cc3)sc3ncnc(OC(Cc4ccccc4OCc4ccnc(-c5cccc(COC(=O)N6CCOCCOCCOCCOCCOCC6)c5)n4)C(=O)O)c23)ccc(OCCN2CCN(C)CC2)c1Cl [Example 46, (2R)-2-{[(5Sa)-5-{3-chloro-2-methyl-4-[2-(4-methylpiperazin-1-yl)ethoxy]phenyl}-6-(4-fluorophenyl)thieno[2,3-d]pyrimidin-4-yl]oxy}-3-(2-{[2-(3-{[(1,4,7,10,13-pentaoxa-16-azacyclooctadecan-16-ylcarbonyl)oxy]methyl}phenyl)pyrimidin-4-yl]methoxy}phenyl)propanoic acid]",2.55e-09 M,23.4 nM,–,–
"COCCOCCOc1cccc(-c2nccc(COc3ccccc3CC(Oc3ncnc4sc(-c5ccc(F)cc5)c(-c5ccc(OCCN6CCN(C)CC6)c(Cl)c5C)c34)C(=O)O)n2)c1 [Example 40, (2R)-2-{[(5Sa)-5-{3-chloro-2-methyl-4-[2-(4-methylpiperazin-1-yl)ethoxy]phenyl}-6-(4-fluorophenyl)thieno[2,3-d]pyrimidin-4-yl]oxy}-3-{2-[(2-{3-[2-(2-methoxyethoxy)ethoxy]phenyl}pyrimidin-4-yl)methoxy]phenyl}propanoic acid]",3.75e-09 M,6.15 nM,–,–
"COC1OC(COc2ccc(-c3nccc(COc4ccccc4CC(Oc4ncnc5sc(-c6ccc(F)cc6)c(-c6ccc(OCCN7CCN(C)CC7)c(Cl)c6C)c45)C(=O)O)n3)cc2)C(OC)C(OC)C1OC [Example 19, methyl 6-O-{4-[4-({2-[(2R)-2-carboxy-2-{[(5Sa)-5-{3-chloro-2-methyl-4-[2-(4-methylpiperazin-1-yl)ethoxy]phenyl}-6-(4-fluorophenyl)thieno[2,3-d]pyrimidin-4-yl]oxy}ethyl]phenoxy}methyl)pyrimidin-2-yl]phenyl}-2,3,4-tri-O-methyl-α-D-mannopyranoside]",4.95e-09 M,2.47 nM,–,–
"COC1OC(COc2cccc(-c3nccc(COc4ccccc4CC(Oc4ncnc5sc(-c6ccc(F)cc6)c(-c6ccc(OCCN7CCN(C)CC7)c(Cl)c6C)c45)C(=O)O)n3)c2)C(OC)C(OC)C1OC [Example 17, methyl 6-O-{3-[4-({2-[(2R)-2-carboxy-2-{[(5Sa)-5-{3-chloro-2-methyl-4-[2-(4methylpiperazin-1-yl)ethoxy]phenyl}-6-(4-fluorophenyl)thieno[2,3-d]pyrimidin-4-yl]oxy}ethyl]phenoxy}methyl)pyrimidin-2-yl]phenyl}-2,3,4-tri-O-methyl-α-D-mannopyranoside]",4.8e-09 M,3.03 nM,–,–
"Cc1c(-c2c(-c3ccc(F)cc3)sc3ncnc(OC(Cc4ccccc4OCc4ccnc(-c5cccc(OP(=O)(O)O)c5)n4)C(=O)O)c23)ccc(OCCN2CCN(C)CC2)c1Cl [Example 28, (2R)-2-{[(5Sa)-5-{3-chloro-2-methyl-4-[2-(4-methylpiperazin-1-yl)ethoxy]phenyl}-6-(4-fluorophenyl)thieno[2,3-d]pyrimidin-4-yl]oxy}-3-[2-({2-[3-(phosphonooxy)phenyl]pyrimidin-4-yl}methoxy)phenyl]propanoic acid]",–,48.4 nM,4.15e-09 M,–
"Cc1c(-c2c(-c3ccc(F)cc3)sc3ncnc(OC(Cc4ccccc4OCc4ccnc(-c5ccc(OP(=O)(O)O)cc5)n4)C(=O)O)c23)ccc(OCCN2CCN(C)CC2)c1Cl [Example 29, 4-[4-({2-[(2R)-2-carboxy-2-{[(5Sa)-5-{3-chloro-2-methyl-4-[2-(4-methylpiperazin-1-yl)ethoxy]phenyl}-6-(4-fluorophenyl)thieno[2,3-d]pyrimidin-4-yl]oxy}ethyl]phenoxy}methyl)pyrimidin-2-yl]phenyl phosphate]",–,22.7 nM,4.6e-09 M,–
"COCc1ccccc1-c1nccc(COc2ccccc2C[C@@H](Oc2ncnc3sc(-c4ccc(F)cc4)c(-c4ccc(OCCN5CCN(C)CC5)c(Cl)c4C)c23)C(=O)O)n1 [Example 8, (2R)-2-{[(5Sa)-5-{3-chloro-2-methyl-4-[2-(4-methylpiperazin-1-yl)ethoxy]phenyl}-6-(4-flurophenyl)thieno[2,3-d]pyrimidin-4-yl]oxy}-3-[2-({2-[2-(methoxymethyl)phenyl]pyrimidin-4-yl}methoxy)phenyl]propanoic acid]",7.35e-09 M,–,–,2.07 nM
